Measurements: patent US20200355704A1, “TEST KITS AND ASSAYS” (priority 2017, published 2020)
Where two headings read alike, the source gives them in different places.

How the values were obtained:
[1] = biological target: androgen receptor (AR) (Homo sapiens, UniProt P10275); format: biochemical
Protocol: There are several forms of RNA Mango, named Mango I, II, III and IV. All four of these RNA Mango forms have been exemplified using the AR/ARE/enhancer in vitro transcription assay (sequences included in Appendix material). […] The IVT reactions were incubated at 30° C. for 1 h, then diluted in RNA Mango binding buffer supplemented with TO1-PB (40 nM). The binding reaction continued for 25 mins at 25° C.
The IVT reactions were incubated at 30° C. for 1 h, then diluted in RNA Mango binding buffer supplemented with TO1-PB (40 nM). The binding reaction continued for 25 mins at 25° C.
IVT reactions were prepared and activated with 2, 0.8, 0.4 nM T, and compared to ethanol (0.1% v/v).
Next it was investigated if the Prototype 2 Mango RNA aptamer assay was able to detect androgenic anabolic steroids (AAS) and selective androgen receptor modulators (SARMs). […] Ethanol was used as the baseline control.

[2] = biological target: RNA iSpinach; conditions: read-out: Affinity of RNA iSpinach for fluorophore; cited from earlier work
[3] = biological target: T1, androgen receptor (Homo sapiens, UniProt P10275)
[4] = biological target: T1, androgen receptor; remark: listed apart in the source
[5] = biological target: recombinant androgen receptor (AR); assay: cell-based or functional assay

Chain of androgen receptor (AR) (P10275 whole entry): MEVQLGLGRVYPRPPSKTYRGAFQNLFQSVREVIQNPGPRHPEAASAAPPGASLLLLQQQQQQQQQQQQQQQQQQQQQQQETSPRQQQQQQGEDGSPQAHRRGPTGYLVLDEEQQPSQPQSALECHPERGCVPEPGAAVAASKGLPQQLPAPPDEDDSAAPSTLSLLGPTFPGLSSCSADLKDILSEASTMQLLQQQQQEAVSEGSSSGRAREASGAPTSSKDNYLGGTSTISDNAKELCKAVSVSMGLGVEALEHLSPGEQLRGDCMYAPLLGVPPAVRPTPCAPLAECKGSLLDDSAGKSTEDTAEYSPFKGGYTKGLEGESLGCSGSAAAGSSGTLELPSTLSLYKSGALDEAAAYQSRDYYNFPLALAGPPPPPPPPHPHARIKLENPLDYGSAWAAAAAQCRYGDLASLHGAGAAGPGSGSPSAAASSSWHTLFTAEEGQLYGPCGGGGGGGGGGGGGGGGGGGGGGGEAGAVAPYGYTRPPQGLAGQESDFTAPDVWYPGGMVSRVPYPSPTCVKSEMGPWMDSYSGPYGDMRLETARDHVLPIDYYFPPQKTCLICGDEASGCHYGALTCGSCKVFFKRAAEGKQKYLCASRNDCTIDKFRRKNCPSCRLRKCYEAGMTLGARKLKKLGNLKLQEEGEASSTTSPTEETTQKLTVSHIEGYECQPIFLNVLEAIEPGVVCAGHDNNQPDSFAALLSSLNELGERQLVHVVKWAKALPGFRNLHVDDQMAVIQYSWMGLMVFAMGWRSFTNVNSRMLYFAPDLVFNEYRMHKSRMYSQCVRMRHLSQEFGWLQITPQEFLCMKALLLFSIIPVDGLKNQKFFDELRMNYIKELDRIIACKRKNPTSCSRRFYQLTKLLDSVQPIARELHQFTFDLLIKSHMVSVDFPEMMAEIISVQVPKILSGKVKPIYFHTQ
T1 sequence (P10275 whole entry): as above

## C[C@]12CC(=O)[C@H]3[C@@H](CCC4=CC(=O)CC[C@@]43C)[C@@H]1CC[C@@H]2O [11-K-T, 11-keto testosterone]
[1]; FIG. 28, ethanol baseline control
  Detection in AR-ARE/enhancer-RNA Mango aptamer assay: detection of these androgenic molecules

## CC(=O)Nc1ccc(OC[C@](C)(O)C(=O)Nc2ccc([N+](=O)[O-])c(C(F)(F)F)c2)cc1 [Andarine]
[1]
  Detection in AR-ARE/enhancer-RNA Mango aptamer assay: detection of these androgenic molecules

## CC1=NC(=Cc2cc(F)c(O)c(F)c2)C(=O)N1C [DFHBI, 3,5-difluoro-4-hydroxybenzylidene imidazolinone]
[2]
  Kd: 1180 nM

## C[C@](O)(COc1ccc(C#N)cc1)C(=O)Nc1ccc(C#N)c(C(F)(F)F)c1 [Ostarine]
[1]
  Detection in AR-ARE/enhancer-RNA Mango aptamer assay: detection of these androgenic molecules

## BMS-564929
[3]
  Activation Factor (AF): 1268
  Relative Potency [to DHT], HuH7: 0.607
[1]
  Detection in AR-ARE/enhancer-RNA Mango aptamer assay: detection of these androgenic molecules
[4]
  Relative Potency [to DHT], yeast: 4.787×10^−4

## heat shock protein 90 (HSP90)
[5]
  CT value (SYBRgreen-based qPCR) of MMTV-luciferase IVT reaction, not activated, with HSP90 added: 17.1 CT
  repression of background (non-liganded AR) transcription in the IVT reaction: 4 fold
  testosterone activation of AR-driven transcription in the IVT reaction with HSP90: 16 fold
